In data set [1] the target is recombinant human α2C receptor (Homo sapiens (Human), UniProt P18825). Nature of the data set: Antagonism against the adrenoreceptor α2C (luminescence, noradrenaline-stimulated CHO cells). The note with it: noradrenaline 20 nM; CHO cell line with Gαqi3 and mtOb. Format: cell-based. The procedure: Antagonism against the adrenoreceptor α1A was tested using a recombinant human α1A receptor CHO cell line which additionally also recombinantly expresses mtAeq (mitochondrial aequorin). Antagonism against the adrenoreceptor α2A was tested using a recombinant human α2A-Gα16 receptor fusion protein CHO cell line (PerkinElmer Life Sciences) which additionally also recombinantly expresses mtAeq. Antagonism against the adrenoreceptor α2B was tested using a recombinant human α2B receptor CHO cell line (PerkinElmer Life Sciences) which additionally also recombinantly expresses mtAeq. Antagonism against the adrenoreceptor α2C was tested using a recombinant human α2C receptor CHO cell line which additionally also recombinantly expresses a chimaric G protein (Gαqi3) and mtOb (mitochondrial obelin).
recombinant human α2C receptor, sequence (P18825 whole entry, the tested form may be a part): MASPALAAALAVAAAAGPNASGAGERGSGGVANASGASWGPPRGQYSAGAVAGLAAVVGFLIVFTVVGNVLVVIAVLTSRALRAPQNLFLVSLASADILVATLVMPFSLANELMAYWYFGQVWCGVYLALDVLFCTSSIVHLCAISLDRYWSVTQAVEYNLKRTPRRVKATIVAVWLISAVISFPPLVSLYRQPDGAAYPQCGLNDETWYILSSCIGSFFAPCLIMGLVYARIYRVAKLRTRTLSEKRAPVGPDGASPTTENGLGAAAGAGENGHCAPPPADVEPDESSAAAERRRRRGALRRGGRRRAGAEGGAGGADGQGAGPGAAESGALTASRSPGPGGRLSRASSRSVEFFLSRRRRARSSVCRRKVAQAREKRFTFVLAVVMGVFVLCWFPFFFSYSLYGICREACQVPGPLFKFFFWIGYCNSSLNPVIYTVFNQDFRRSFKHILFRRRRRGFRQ
The cells were cultivated at 37° C. and 5% CO2 in Dulbecco's modified Eagle's Medium/NUT mix F12 with L-glutamine which additionally contains 10% (v/v) inactivated foetal calf serum, 1 mM sodium pyruvate, 0.9 mM sodium bicarbonate, 50 U/ml penicillin, 50 μg/ml streptomycin, 2.5 μg/ml amphotericin B and 1 mg/ml Geneticin. The cells were passaged with enzyme-free Hank's-based cell dissociation buffer. All cell culture reagents used were from Invitrogen (Carlsbad, USA).
Luminescence measurements were carried out on white 384-well microtitre plates. 2000 cells/well were plated in a volume of 25 μl and cultivated for one day at 30° C. and 5% CO2 in cell culture medium with coelenterazine (α2A and α2B: 5 μg/ml; α1a/c and α2C: 2.5 μg/ml). Serial dilutions of the test substances (10 μl) were added to the cells. After 5 minutes, noradrenaline was added to the cells (35 μl; final concentrations: 20 nM (α1a/c and α2C) or 200 nM (α2A and α2B)), and the emitted light was measured for 50 seconds using a CCD (charge-coupled device) camera (Hamamatsu Corporation, Shizuoka, Japan) in a light-tight box. The test substances were tested up to a maximum concentration of 10 μM. The IC50 values were calculated from the appropriate dose-response curves.

The subject of data set [2] is diabetic (ZDFfa/fa) and healthy rats (Wistar). Nature of the data set: Assay of perfusion-enhancing substances (microcirculation), laser doppler at the paw. It counts as in vivo, rat. An excerpt:
In diabetic (ZDFfa/fa) and healthy rats (Wistar), a laser doppler probe was fastened under anaesthesia conditions (isoflurane anaesthesia) at the sole of the paw for measuring cutaneous microcirculation. The test animals were once treated orally with the test substances. During the experiment, microperfusion and temperature of the lower extremities were documented continuously. Here, a temperature-sensitive laser doppler probe (Periflux, O2C) was fastened with adhesive to the paws of the animals, allowing the measurement of microperfusion and skin temperature. The microcirculation measurement values were measured on both paws 30 min after oral administration of the test substance. […] Also stated is the MED for the significant increase of skin temperature (ttest).
Microcirculation data for adrenoreceptor α2C receptor antagonist of the compound of Example 8 and for the comparative substance ORM12741, an AR α2c receptor antagonist from Orion, are shown in Table 3: […]

Data set [3] relates to conscious female Wistar rats. Nature of the data set: Radiotelemetric measurement of blood pressure and heart rate of conscious rats. Format: in vivo, rat. As to conditions: oral 10 mg/kg. From the text:
A commercially available telemetry system from Data Sciences International DSI, USA, was employed for the measurements on conscious rats described below. The system consists of 3 main components: (1) implantable transmitters (Physiotel® telemetry transmitter), (2) receivers (Physiotel® receiver), which are linked via a multiplexer (DSI Data Exchange Matrix) to a (3) data acquisition computer. The telemetry system makes it possible to continuously record blood pressure, heart rate and body motion of conscious animals in their usual habitat.
The studies were conducted on adult female Wistar rats with a body weight of >200 g. After transmitter implantation, the experimental animals were housed singly in type III Makrolon® cages. They had free access to standard feed and water. The day/night rhythm in the test laboratory was set by changing the illumination of the room.
The telemetry transmitters used (PA-C40, DSI) were surgically implanted under aseptic conditions in the experimental animals at least 14 days before the first experimental use.
For the implantation, the fasted animals were anaesthetized with isoflurane (IsoFlo®, Abbott, initiation 5%, maintenance 2%) and shaved and disinfected over a large area of their abdomens. […]
Each of the instrumented rats living in the system was assigned a separate receiving antenna (RPC-1 Receiver, DSI). […] The signals emitted were detected online by a data acquisition system (Dataquest™ A.R.T. for Windows, DSI) and processed accordingly.
In the standard procedure, the following were measured for 10-second periods in each case: (1) systolic blood pressure (SBP), (2) diastolic blood pressure (DBP), (3) mean arterial pressure (MAP) and (4) heart rate (HR) and (5) activity (ACT). These parameters were measured over 24 hours after administration.
The acquisition of measurements was repeated under computer control at 5-minute intervals. The source data obtained as absolute values were corrected in the diagram with the currently measured barometric pressure (Ambient Pressure Reference Monitor, APR-1, DSI). […]

pIC50: −log10 of the molar value. Counter-ions that a name gives are not always drawn.

The pIC50 is the IC50 on a negative log10 scale, so that one unit is a factor of ten. With `CCC(COC)Nc1ncc(C(=O)N2CCC(N3CCc4ccc(F)cc4C3)CC2)cn1` (racemic) [Example 2, (rac)-[4-(7-Fluoro-3,4-dihydroisoquinolin-2(1H)-yl)piperidin-1-yl]{2-[(1-methoxybutan-2-yl)amino]pyrimidin-5-yl}methanone], the pIC50 in data set [1] was 7.59. As for `CCC(COC)Nc1ncc(C(=O)N2CCC(N3CCc4ccc(OC)cc4C3)CC2)cn1` (racemic) [Example 4, (rac)-{2-[(1-Methoxybutan-2-yl)amino]pyrimidin-5-yl}[4-(7-methoxy-3,4-dihydroisoquinolin-2(1H)-yl)piperidin-1-yl]methanone], in data set [1], the pIC50 is 8.30. For the compound `CCC(COC)Nc1ncc(C(=O)N2CCC(N3CCc4cc(OC)ccc4C3)CC2)cn1` (racemic) [Example 5, (rac)-{2-[(1-Methoxybutan-2-yl)amino]pyrimidin-5-yl}[4-(6-methoxy-3,4-dihydroisoquinolin-2(1H)-yl)piperidin-1-yl]methanone], the pIC50 in data set [1] is 7.70. As to `CCC(COC)Nc1ncc(C(=O)N2CCC(N3CCc4ccccc4C3)CC2)cn1` (racemic) [Example 6, (rac)-[4-(3,4-Dihydroisoquinolin-2(1H)-yl)piperidin-1-yl]{2-[(1-methoxybutan-2-yl)amino]pyrimidin-5-yl}methanone], the pIC50 in data set [1] is 7.51. With `CCC(CO)Nc1ncc(C(=O)N2CCC(N3CCc4ccccc4C3)CC2)cn1` (racemic) [Example 7, (rac)-[4-(3,4-Dihydroisoquinolin-2(1H)-yl)piperidin-1-yl]{2-[(1-hydroxybutan-2-yl)amino]pyrimidin-5-yl}methanone], the pIC50 in data set [1] is 7.17.

As to `COCCNc1ncc(C(=O)N2CCC(N3CCc4ccccc4C3)CC2)cn1` [Example 1, [4-(3,4-Dihydroisoquinolin-2(1H)-yl)piperidin-1-yl]{2-[(2-methoxyethyl)amino]pyrimidin-5-yl}methanone], the pIC50 in data set [1] is 7.09.

On to `O=C(c1cnc(N2CC3(COC3)C2)nc1)N1CCC(N2CCc3ccc(F)cc3C2)CC1` [Example 9, [4-(7-Fluoro-3,4-dihydroisoquinolin-2(1H)-yl)piperidin-1-yl][2-(2-oxa-6-azaspiro[3.3]hept-6-yl)pyrimidin-5-yl]methanone], for which the pIC50 in data set [1] is 7.80. Still for that read-out and setting: to `COc1ccc2c(c1)CCN(C1CCN(C(=O)c3cnc(N4CC5(COC5)C4)nc3)CC1)C2` [Example 10, [4-(6-Methoxy-3,4-dihydroisoquinolin-2(1H)-yl)piperidin-1-yl][2-(2-oxa-6-azaspiro[3.3]hept-6-yl)pyrimidin-5-yl]methanone] belongs 7.52; to `O=C(O)[C@H]1CCCN1c1ncc(C(=O)N2CCC(N3CCc4ccccc4C3)CC2)cn1` [Example 11, 1-(5-{[4-(3,4-Dihydroisoquinolin-2(1H)-yl)piperidin-1-yl]carbonyl}pyrimidin-2-yl)-D-proline Hydrochloride], 7.02. On the same count and under the same terms, then `O=C(c1cnc(N2CCS(=O)(=O)CC2)nc1)N1CCC(N2CCc3ccccc3C2)CC1` [Example 12, [4-(3,4-Dihydroisoquinolin-2(1H)-yl)piperidin-1-yl][2-(1,1-dioxidothiomorpholin-4-yl)pyrimidin-5-yl]methanone], with 7.59; and `CC1CN(c2ncc(C(=O)N3CCC(N4CCc5ccccc5C4)CC3)cn2)CC(C)O1` (stereo not drawn) [Example 13, [4-(3,4-Dihydroisoquinolin-2(1H)-yl)piperidin-1-yl][2-(2,6-dimethylmorpholin-4-yl)pyrimidin-5-yl]methanone (Cis Isomer)], with 7.33. As for `CC1CN(c2ncc(C(=O)N3CCC(N4CCc5ccccc5C4)CC3)cn2)CC(C)O1` (stereo not drawn) [Example 14, [4-(3,4-Dihydroisoquinolin-2(1H)-yl)piperidin-1-yl][2-(2,6-dimethylmorpholin-4-yl)pyrimidin-5-yl]methanone (Trans Isomer)], the pIC50 in data set [1] was 7.62. On to `CC1(C)CN(c2ncc(C(=O)N3CCC(N4CCc5ccccc5C4)CC3)cn2)CCO1` [Example 15, [4-(3,4-Dihydroisoquinolin-2(1H)-yl)piperidin-1-yl][2-(2,2-dimethylmorpholin-4-yl)pyrimidin-5-yl]methanone], for which the pIC50 in data set [1] was 7.17. As to `COC[C@@]1(C)CCCN2CCc3c(oc4ccccc34)[C@@H]21` [ORM-12741, reference compound], the “factor by which microcirculation is improved at the MED compared to placebo” value in data set [2] (single oral dose at MED, 30 min after administration) stood at 1.9 x. For the same compound, in data set [2] (single oral dose, measured 30 min after administration, significant vs placebo), the MED microcirculation came to 0.1 mg/kg. In addition, the MED skin temperature in data set [2] (single oral dose, significant increase of skin temperature (ttest)) was 0.01 mg/kg. Moreover, the blood pressure result in data set [3] was “additional reduction in blood pressure”.

Values taken from patent US10323020B2, “Substituted piperidinyl tetrahydroquinolines” (Bayer Pharma Aktiengesellschaft, priority 2013, dated 2019).
